Article PMC6874179, “Development of Macrocycle Kinase Inhibitors for ALK2 Using Fibrodysplasia Ossificans Progressiva‐Derived Endothelial Cells” (JBMR Plus, 2019)

Assays:
caALK6 = experiment: BRE-LUC with constitutive active ALK6 in C2C12 cells; type: cell-based; conditions: compound 0.5μM 16 hours
Protocol: (§1) Compounds were added for 16 hours at 0.5μM before luciferase activity was measured.
(§2) For luciferase reporter assays, cells were seeded in 24-well plates and transfected with DharmaFECT Duo (Fisher Scientific, Landsmeer, The Netherlands), following the recommendations of the manufacturer. 48 hours after transfection the cells were harvested and lysed. […] Each transfection mixture was equalized with empty vector when necessary and every experiment was performed in triplicate.

caALK1 = biological target: T1, caALK1 (Homo sapiens, UniProt P37023, Q201D); experiment: BRE-LUC with constitutive active ALK1 in C2C12 cells; type: cell-based; conditions: compound 0.5μM 16 hours
T1 construct: expressed in transfected cells; host or cells: C2C12 murine myofibroblast cells
Protocol: as §1, §2

RET_R749T = biological target: T2, RET_R749T (Homo sapiens, UniProt P07949, R749T); experiment: Proqinase Kinase profiling; type: biochemical; conditions: read-out: % inhibition at 100nM
T2 construct: purchased DiscoverX

MAP3K11 = biological target: T3, MAP3K11 (Homo sapiens, UniProt Q16584); experiment: Proqinase Kinase profiling; type: biochemical; conditions: read-out: % inhibition at 100nM
T3 construct: purchased DiscoverX

GRK7 = biological target: T4, GRK7 (Homo sapiens, UniProt Q8WTQ7); experiment: Proqinase Kinase profiling; type: biochemical; conditions: read-out: % inhibition at 100nM
T4 construct: purchased DiscoverX

PDGFRA_V561D = biological target: T5, PDGFRA_V561D (Homo sapiens, UniProt P16234, V561D); experiment: Proqinase Kinase profiling; type: biochemical; conditions: read-out: % inhibition at 100nM
T5 construct: purchased DiscoverX

CDK1_cyclinE1 = biological target: T6, CDK1_cyclinE1 (Homo sapiens, UniProt P06493); experiment: Proqinase Kinase profiling; type: biochemical; conditions: read-out: % inhibition at 100nM
T6 construct: purchased DiscoverX

EGFR_G719C = biological target: T7, EGFR_G719C (Homo sapiens, UniProt P00533, G719C); experiment: Proqinase Kinase profiling; type: biochemical; conditions: read-out: % inhibition at 100nM
T7 construct: purchased DiscoverX

CSF1R = biological target: T8, CSF1R (Homo sapiens, UniProt P07333); experiment: Proqinase Kinase profiling; type: biochemical; conditions: read-out: % inhibition at 100nM
T8 construct: purchased DiscoverX

MERTK = biological target: T9, MERTK (Homo sapiens, UniProt Q12866); experiment: Proqinase Kinase profiling; type: biochemical; conditions: read-out: % inhibition at 100nM
T9 construct: purchased DiscoverX

DAPK2 = biological target: T10, DAPK2 (Homo sapiens, UniProt Q9UIK4); experiment: Proqinase Kinase profiling; type: biochemical; conditions: read-out: % inhibition at 100nM
T10 construct: purchased DiscoverX

NUAK2 = biological target: T11, NUAK2 (Homo sapiens, UniProt Q9H093); experiment: Proqinase Kinase profiling; type: biochemical; conditions: read-out: % inhibition at 100nM
T11 construct: purchased DiscoverX

CAMK2G = biological target: T12, CAMK2G (Homo sapiens, UniProt Q13555); experiment: Proqinase Kinase profiling; type: biochemical; conditions: read-out: % inhibition at 100nM
T12 construct: purchased DiscoverX

PKMYT1 = biological target: T13, PKMYT1 (Homo sapiens, UniProt Q99640); experiment: Proqinase Kinase profiling; type: biochemical; conditions: read-out: % inhibition at 100nM
T13 construct: purchased DiscoverX

MAP2K5 = biological target: T14, MAP2K5 (Homo sapiens, UniProt Q13163); experiment: Proqinase Kinase profiling; type: biochemical; conditions: read-out: % inhibition at 100nM
T14 construct: purchased DiscoverX

ALK_F1174L/NPM1 = biological target: T15, ALK_F1174L/NPM1 (Homo sapiens, UniProt P06748+Q9UM73, F1174L); experiment: Proqinase Kinase profiling; type: biochemical; conditions: read-out: % inhibition at 100nM
T15 construct: purchased DiscoverX

EPHA6 = biological target: T16, EPHA6 (Homo sapiens, UniProt Q9UF33); experiment: Proqinase Kinase profiling; type: biochemical; conditions: read-out: % inhibition at 100nM
T16 construct: purchased DiscoverX

PKN3 = biological target: T17, PKN3 (Homo sapiens, UniProt Q6P5Z2); experiment: Proqinase Kinase profiling; type: biochemical; conditions: read-out: % inhibition at 100nM
T17 construct: purchased DiscoverX

SIK1 = biological target: T18, SIK1 (Homo sapiens, UniProt P57059); experiment: Proqinase Kinase profiling; type: biochemical; conditions: read-out: % inhibition at 100nM
T18 construct: purchased DiscoverX

MAP2K4 = biological target: T19, MAP2K4 (Homo sapiens, UniProt P45985); experiment: Proqinase Kinase profiling; type: biochemical; conditions: read-out: % inhibition at 100nM
T19 construct: purchased DiscoverX

TTBK2 = biological target: T20, TTBK2 (Homo sapiens, UniProt Q6IQ55); experiment: Proqinase Kinase profiling; type: biochemical; conditions: read-out: % inhibition at 100nM
T20 construct: purchased DiscoverX

VRK2 = biological target: T21, VRK2 (Homo sapiens, UniProt Q86Y07); experiment: Proqinase Kinase profiling; type: biochemical; conditions: read-out: % inhibition at 100nM
T21 construct: purchased DiscoverX

BRSK2 = biological target: T22, BRSK2 (Homo sapiens, UniProt Q8IWQ3); experiment: Proqinase Kinase profiling; type: biochemical; conditions: read-out: % inhibition at 100nM
T22 construct: purchased DiscoverX

ALK/NPM1 = biological target: T23, ALK/NPM1 (Homo sapiens, UniProt P06748+Q9UM73); experiment: Proqinase Kinase profiling; type: biochemical; conditions: read-out: % inhibition at 100nM
T23 construct: purchased DiscoverX

MAP2K7 = biological target: T24, MAP2K7 (Homo sapiens, UniProt O14733); experiment: Proqinase Kinase profiling; type: biochemical; conditions: read-out: % inhibition at 100nM
T24 construct: purchased DiscoverX

CDC7_DBF4 = biological target: T25, CDC7_DBF4 (Homo sapiens, UniProt O00311); experiment: Proqinase Kinase profiling; type: biochemical; conditions: read-out: % inhibition at 100nM
T25 construct: purchased DiscoverX

DDR2_T654M = biological target: T26, DDR2_T654M (Homo sapiens, UniProt Q16832, T654M); experiment: Proqinase Kinase profiling; type: biochemical; conditions: read-out: % inhibition at 100nM
T26 construct: purchased DiscoverX

BUB1B = biological target: T27, BUB1B (Homo sapiens, UniProt O60566); experiment: Proqinase Kinase profiling; type: biochemical; conditions: read-out: % inhibition at 100nM
T27 construct: purchased DiscoverX

DDR2_N456S = biological target: T28, DDR2_N456S (Homo sapiens, UniProt Q16832, N456S); experiment: Proqinase Kinase profiling; type: biochemical; conditions: read-out: % inhibition at 100nM
T28 construct: purchased DiscoverX

MLK4 = biological target: T29, MLK4 (Homo sapiens, UniProt Q5TCX8); experiment: Proqinase Kinase profiling; type: biochemical; conditions: read-out: % inhibition at 100nM
T29 construct: purchased DiscoverX

CDK6_cyclinD3 = biological target: T30, CDK6_cyclinD3 (Homo sapiens, UniProt Q00534); experiment: Proqinase Kinase profiling; type: biochemical; conditions: read-out: % inhibition at 100nM
T30 construct: purchased DiscoverX

TTBK1 = biological target: T31, TTBK1 (Homo sapiens, UniProt Q5TCY1); experiment: Proqinase Kinase profiling; type: biochemical; conditions: read-out: % inhibition at 100nM
T31 construct: purchased DiscoverX

T4 sequence (Q8WTQ7 whole entry): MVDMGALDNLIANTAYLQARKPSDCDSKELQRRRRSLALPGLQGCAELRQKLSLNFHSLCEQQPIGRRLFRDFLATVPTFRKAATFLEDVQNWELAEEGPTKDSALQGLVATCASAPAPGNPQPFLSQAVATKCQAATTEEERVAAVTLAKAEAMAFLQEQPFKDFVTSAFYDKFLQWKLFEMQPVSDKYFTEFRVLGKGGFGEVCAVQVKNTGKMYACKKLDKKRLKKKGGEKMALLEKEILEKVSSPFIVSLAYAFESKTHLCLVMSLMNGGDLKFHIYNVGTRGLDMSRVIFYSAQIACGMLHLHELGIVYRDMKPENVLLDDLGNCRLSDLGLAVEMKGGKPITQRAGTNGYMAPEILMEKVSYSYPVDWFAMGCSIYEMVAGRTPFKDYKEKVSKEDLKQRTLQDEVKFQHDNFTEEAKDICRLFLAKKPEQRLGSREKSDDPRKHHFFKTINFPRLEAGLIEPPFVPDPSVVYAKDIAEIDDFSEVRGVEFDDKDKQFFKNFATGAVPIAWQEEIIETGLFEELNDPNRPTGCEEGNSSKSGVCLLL
T5 sequence (P16234 24-1089 V561D): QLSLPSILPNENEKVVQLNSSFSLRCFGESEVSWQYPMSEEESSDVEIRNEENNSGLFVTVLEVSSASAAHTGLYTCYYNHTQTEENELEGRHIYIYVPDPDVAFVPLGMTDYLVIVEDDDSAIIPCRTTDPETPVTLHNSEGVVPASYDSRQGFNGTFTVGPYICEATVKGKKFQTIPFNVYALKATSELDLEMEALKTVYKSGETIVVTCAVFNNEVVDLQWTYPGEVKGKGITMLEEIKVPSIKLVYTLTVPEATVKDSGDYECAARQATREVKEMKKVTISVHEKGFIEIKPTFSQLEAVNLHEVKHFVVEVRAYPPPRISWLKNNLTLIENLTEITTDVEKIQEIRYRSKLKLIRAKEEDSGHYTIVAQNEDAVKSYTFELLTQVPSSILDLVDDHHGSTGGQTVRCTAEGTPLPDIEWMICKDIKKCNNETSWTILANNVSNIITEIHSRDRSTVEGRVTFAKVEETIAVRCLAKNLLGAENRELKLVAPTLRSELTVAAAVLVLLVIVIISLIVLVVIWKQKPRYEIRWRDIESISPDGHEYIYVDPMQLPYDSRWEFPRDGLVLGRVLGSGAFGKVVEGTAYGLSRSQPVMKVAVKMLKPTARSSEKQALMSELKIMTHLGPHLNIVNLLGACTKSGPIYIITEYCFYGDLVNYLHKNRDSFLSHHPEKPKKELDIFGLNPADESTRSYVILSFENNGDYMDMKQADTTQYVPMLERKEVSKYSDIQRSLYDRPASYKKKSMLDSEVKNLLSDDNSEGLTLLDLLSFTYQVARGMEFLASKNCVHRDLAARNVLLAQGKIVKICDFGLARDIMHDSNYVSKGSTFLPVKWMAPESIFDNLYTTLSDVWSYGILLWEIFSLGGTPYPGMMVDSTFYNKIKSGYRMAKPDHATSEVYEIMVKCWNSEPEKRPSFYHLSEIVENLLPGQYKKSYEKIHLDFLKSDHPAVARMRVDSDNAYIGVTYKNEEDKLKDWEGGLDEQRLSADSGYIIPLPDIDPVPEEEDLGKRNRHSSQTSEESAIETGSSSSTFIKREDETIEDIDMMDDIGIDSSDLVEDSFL
T6 sequence (P06493 whole entry): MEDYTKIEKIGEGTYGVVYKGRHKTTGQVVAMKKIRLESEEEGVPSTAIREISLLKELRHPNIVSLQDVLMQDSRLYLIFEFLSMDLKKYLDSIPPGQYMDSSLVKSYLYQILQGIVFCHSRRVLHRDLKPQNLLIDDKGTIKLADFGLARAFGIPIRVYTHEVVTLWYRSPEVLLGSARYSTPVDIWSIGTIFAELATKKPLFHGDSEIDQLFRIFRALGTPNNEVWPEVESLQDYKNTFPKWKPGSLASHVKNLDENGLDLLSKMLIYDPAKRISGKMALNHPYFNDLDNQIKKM
T6 sequence (P24864 whole entry partner): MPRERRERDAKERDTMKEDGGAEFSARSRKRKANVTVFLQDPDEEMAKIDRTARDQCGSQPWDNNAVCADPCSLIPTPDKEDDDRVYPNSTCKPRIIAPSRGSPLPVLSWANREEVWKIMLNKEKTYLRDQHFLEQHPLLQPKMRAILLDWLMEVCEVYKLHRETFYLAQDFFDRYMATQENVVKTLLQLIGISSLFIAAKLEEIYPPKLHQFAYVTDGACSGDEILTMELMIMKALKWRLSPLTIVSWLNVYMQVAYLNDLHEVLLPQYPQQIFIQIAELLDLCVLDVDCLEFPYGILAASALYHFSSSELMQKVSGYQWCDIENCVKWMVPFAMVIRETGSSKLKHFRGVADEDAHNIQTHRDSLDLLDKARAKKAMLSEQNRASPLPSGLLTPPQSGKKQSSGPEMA
T10 sequence (Q9UIK4 whole entry): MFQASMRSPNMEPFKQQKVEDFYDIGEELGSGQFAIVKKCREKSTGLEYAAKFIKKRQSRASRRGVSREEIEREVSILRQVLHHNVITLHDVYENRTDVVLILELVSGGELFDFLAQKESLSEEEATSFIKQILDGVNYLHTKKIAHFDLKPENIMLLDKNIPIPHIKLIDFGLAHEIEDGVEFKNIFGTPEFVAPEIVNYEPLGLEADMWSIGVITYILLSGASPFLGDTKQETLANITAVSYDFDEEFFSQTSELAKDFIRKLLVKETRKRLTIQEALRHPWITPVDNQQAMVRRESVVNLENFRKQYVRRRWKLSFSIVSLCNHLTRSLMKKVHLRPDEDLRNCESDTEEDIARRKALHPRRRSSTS
T8 sequence (P07333 20-972): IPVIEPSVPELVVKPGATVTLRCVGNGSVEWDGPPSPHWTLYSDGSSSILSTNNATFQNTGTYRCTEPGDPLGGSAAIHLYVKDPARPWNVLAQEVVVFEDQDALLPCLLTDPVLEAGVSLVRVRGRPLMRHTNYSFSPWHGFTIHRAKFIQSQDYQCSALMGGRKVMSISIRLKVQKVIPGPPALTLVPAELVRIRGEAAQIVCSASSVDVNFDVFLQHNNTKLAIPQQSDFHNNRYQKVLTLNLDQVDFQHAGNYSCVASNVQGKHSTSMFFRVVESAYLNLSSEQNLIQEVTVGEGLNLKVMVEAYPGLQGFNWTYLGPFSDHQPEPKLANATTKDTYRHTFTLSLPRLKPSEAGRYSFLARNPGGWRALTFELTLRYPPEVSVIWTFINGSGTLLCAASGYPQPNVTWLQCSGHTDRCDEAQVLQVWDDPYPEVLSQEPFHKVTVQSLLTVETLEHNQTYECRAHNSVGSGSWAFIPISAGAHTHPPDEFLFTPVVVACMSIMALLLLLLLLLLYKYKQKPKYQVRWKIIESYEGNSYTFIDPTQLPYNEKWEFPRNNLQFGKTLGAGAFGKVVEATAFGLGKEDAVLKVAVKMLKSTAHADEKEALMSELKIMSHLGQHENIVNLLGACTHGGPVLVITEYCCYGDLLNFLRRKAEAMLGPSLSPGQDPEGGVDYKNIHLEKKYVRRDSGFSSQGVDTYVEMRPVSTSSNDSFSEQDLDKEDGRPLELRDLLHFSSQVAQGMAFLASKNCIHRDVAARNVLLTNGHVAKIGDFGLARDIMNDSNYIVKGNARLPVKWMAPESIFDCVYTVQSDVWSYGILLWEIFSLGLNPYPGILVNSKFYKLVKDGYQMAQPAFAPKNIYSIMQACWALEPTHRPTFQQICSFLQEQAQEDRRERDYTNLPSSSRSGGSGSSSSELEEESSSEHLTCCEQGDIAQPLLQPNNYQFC
T9 sequence (Q12866 21-999): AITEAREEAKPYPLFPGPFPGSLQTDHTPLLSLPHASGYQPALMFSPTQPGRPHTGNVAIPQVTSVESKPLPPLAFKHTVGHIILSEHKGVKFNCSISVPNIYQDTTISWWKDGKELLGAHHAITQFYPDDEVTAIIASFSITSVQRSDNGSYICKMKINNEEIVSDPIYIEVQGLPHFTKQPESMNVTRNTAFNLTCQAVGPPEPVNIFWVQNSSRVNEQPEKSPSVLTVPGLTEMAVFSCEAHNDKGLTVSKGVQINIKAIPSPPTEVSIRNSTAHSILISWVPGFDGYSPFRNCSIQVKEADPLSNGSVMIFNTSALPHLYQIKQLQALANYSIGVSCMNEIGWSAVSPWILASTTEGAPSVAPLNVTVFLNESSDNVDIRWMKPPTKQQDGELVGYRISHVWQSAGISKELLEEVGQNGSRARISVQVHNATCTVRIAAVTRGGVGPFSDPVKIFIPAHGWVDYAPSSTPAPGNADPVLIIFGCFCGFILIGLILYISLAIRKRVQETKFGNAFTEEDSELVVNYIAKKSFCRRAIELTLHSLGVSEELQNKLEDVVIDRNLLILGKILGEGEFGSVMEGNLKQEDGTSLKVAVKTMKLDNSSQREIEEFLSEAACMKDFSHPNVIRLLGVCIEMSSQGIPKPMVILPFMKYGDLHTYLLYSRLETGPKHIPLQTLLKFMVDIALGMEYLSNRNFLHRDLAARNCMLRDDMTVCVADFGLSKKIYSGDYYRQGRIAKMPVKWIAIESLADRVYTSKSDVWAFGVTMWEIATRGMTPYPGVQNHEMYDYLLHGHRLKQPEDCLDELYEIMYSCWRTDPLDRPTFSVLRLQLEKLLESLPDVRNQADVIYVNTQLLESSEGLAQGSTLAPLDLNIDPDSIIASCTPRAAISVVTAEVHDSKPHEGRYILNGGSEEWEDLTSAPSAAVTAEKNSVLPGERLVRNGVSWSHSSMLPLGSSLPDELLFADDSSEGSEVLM
T24 sequence (O14733 whole entry): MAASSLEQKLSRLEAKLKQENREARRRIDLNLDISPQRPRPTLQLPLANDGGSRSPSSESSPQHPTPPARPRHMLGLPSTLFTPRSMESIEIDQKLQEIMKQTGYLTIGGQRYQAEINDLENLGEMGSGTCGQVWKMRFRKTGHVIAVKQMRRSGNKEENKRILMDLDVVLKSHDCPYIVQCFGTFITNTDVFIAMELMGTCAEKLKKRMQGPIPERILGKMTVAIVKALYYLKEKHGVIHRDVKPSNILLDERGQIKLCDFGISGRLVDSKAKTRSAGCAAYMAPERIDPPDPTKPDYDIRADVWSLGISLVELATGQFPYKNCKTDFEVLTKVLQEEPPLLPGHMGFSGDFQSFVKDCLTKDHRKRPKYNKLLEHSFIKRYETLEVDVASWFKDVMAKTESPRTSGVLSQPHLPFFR

SMILES: c1ccc2c(-c3cnn4cc(-c5ccc(N6CCNCC6)cc5)cnc34)ccnc2c1 [LDN-193189, reference compound]
- Inhibition of caALK6-driven BRE-LUC activity (caALK6): significantly inhibited
- Inhibition of caALK1-driven BRE-LUC activity (caALK1): significantly inhibited

SMILES: Clc1cc2cc(c1)-c1cnn3ccc(nc13)NCCOCCO2 [OD36]
- inhibition at 0.1 µM (RET_R749T): 30%
- inhibition at 0.1 µM (MAP3K11): 30%
- inhibition at 0.1 µM (GRK7): 6%
- inhibition at 0.1 µM (PDGFRA_V561D): -1%
- inhibition at 0.1 µM (CDK1_cyclinE1): 8%
- inhibition at 0.1 µM (EGFR_G719C): 19%
- inhibition at 0.1 µM (CSF1R): 16%
- inhibition at 0.1 µM (MERTK): 15%
- inhibition at 0.1 µM (DAPK2): 17%
- inhibition at 0.1 µM (NUAK2): 9%

SMILES: Cc1cc2cc(c1)-c1cnn3ccc(nc13)NCCNC(=O)CCN(C)C2 [OD52]
- inhibition at 0.1 µM (CAMK2G): 10%
- inhibition at 0.1 µM (RET_R749T): 36%
- inhibition at 0.1 µM (PKMYT1): 6%
- inhibition at 0.1 µM (MAP2K5): -9%
- inhibition at 0.1 µM (MAP3K11): 14%
- inhibition at 0.1 µM (ALK_F1174L/NPM1): -16%
- inhibition at 0.1 µM (GRK7): 12%
- inhibition at 0.1 µM (EPHA6): -12%
- inhibition at 0.1 µM (PKN3): 16%
- inhibition at 0.1 µM (PDGFRA_V561D): 12%
- inhibition at 0.1 µM (SIK1): -2%
- inhibition at 0.1 µM (MAP2K4): 17%
- inhibition at 0.1 µM (TTBK2): 4%
- inhibition at 0.1 µM (VRK2): 6%
- inhibition at 0.1 µM (CDK1_cyclinE1): -2%
- inhibition at 0.1 µM (BRSK2): -13%
- inhibition at 0.1 µM (EGFR_G719C): -31%
- inhibition at 0.1 µM (ALK/NPM1): -5%
- inhibition at 0.1 µM (MAP2K7): 4%
- inhibition at 0.1 µM (CDC7_DBF4): 6%
- inhibition at 0.1 µM (CSF1R): -1%
- inhibition at 0.1 µM (DDR2_T654M): 15%
- inhibition at 0.1 µM (MERTK): -10%
- inhibition at 0.1 µM (BUB1B): -10%
- inhibition at 0.1 µM (DDR2_N456S): 33%
- inhibition at 0.1 µM (MLK4): -11%
- inhibition at 0.1 µM (CDK6_cyclinD3): -7%
- inhibition at 0.1 µM (DAPK2): -10%
- inhibition at 0.1 µM (NUAK2): -7%
- inhibition at 0.1 µM (TTBK1): 8%
